≈ marks a conversion by molar mass, not a printed value. Like-named read-outs stand apart in the source and are kept apart here.
What was measured:
Format in all cases: cell-based
Pseudomonas aeruginosa = test: MIC, dilutions in liquid medium, alone and combined with NXL105; conditions: Pseudomonas aeruginosa
Method: (§1) In vitro activity, method of dilutions in liquid medium:
A series of test 96-well microtiter plates are prepared in which the same quantity of sterile nutritive medium is distributed. Increasing quantities of the compound to be studied, namely the antibacterial compound alone and the inventive combination with the compound of formula (I) of example 1, are distributed in each plate in the respective proportions 2:1 and 4:1, and then each plate is inoculated with a bacterial strain of Pseudomonas aeruginosa. After 24 h of incubation in a 37° C. oven, growth inhibition is evaluated by transillumination, which makes it possible to determine the minimum inhibitory concentrations (MICS) expressed in μg/ml.

E. coli = test: microbe, parasite or virus in culture; conditions: Escherichia coli
Method: as §1
(§2) A series of test 96-well microtiter plates are prepared in which the same quantity of sterile nutritive medium is distributed. […] After 24 h of incubation in a 37° C. oven, growth inhibition is evaluated by transillumination, which makes it possible to determine the minimum inhibitory concentrations (MICS) expressed in μg/ml.

E. cloacae = test: MIC, dilutions in liquid medium, alone and combined with NXL105; conditions: Enterobacter cloacae, read-out: MIC
Method: as §1, §2

K. pneumoniae = test: as above; conditions: Klebsiella pneumoniae, read-out: MIC
Method: as §1, §2

K. oxytoca = test: as above; conditions: Klebsiella oxytoca, read-out: MIC
C. freundii = test: as above; conditions: Citrobacter freundii, read-out: MIC

Structure (SMILES): CC(C)(O/N=C(\C(=O)N[C@@H]1C(=O)N2C(C(=O)[O-])=C(C[n+]3ccccc3)CS[C@H]12)c1csc(N)n1)C(=O)O [Ceftazidime]
- MIC (Pseudomonas aeruginosa; ATCC27853, P. aeruginosa ATCC 27853): 0.5 µg/mL
- MIC (Pseudomonas aeruginosa; P. aeruginosa 391HG2): > 32 µg/mL
- MIC (Pseudomonas aeruginosa; P. aeruginosa 391HG21): > 32 µg/mL
- MIC (Pseudomonas aeruginosa; P. aeruginosa 391HG38): > 32 µg/mL
- MIC (Pseudomonas aeruginosa; P. aeruginosa 391HG39): 1 µg/mL
- MIC (Pseudomonas aeruginosa; P. aeruginosa 391HG58): > 32 µg/mL
- MIC (Pseudomonas aeruginosa; P. aeruginosa 391HG118): 4 µg/mL
- MIC (Pseudomonas aeruginosa; P. aeruginosa 391HG123): 32 µg/mL
- MIC (Pseudomonas aeruginosa; P. aeruginosa 391HG158): > 32 µg/mL
- MIC (Pseudomonas aeruginosa; P. aeruginosa 391HG271): > 32 µg/mL
- MIC (Pseudomonas aeruginosa; P. aeruginosa 391HG329): > 32 µg/mL
- MIC (Pseudomonas aeruginosa; P. aeruginosa 391K1455): 32 µg/mL
- MIC (Pseudomonas aeruginosa; P. aeruginosa 391K1523): 16 µg/mL
- MIC (Pseudomonas aeruginosa; P. aeruginosa 391K1525): 32 µg/mL
- MIC (Pseudomonas aeruginosa; P. aeruginosa 391K1536): 32 µg/mL
- MIC (Pseudomonas aeruginosa; P. aeruginosa 391K2376): 32 µg/mL
- MIC (Pseudomonas aeruginosa; P. aeruginosa 391K2379): 32 µg/mL
- MIC (Pseudomonas aeruginosa; P. aeruginosa 391K2415): 32 µg/mL
- MIC (Pseudomonas aeruginosa; P. aeruginosa 391KB9): > 32 µg/mL
- MIC (Pseudomonas aeruginosa; P. aeruginosa 391KB14): 32 µg/mL
- MIC (Pseudomonas aeruginosa; P. aeruginosa 391KB21): > 32 µg/mL
- MIC (Pseudomonas aeruginosa; P. aeruginosa 391KB33): 32 µg/mL
- MIC (Pseudomonas aeruginosa; P. aeruginosa 391KB38): > 32 µg/mL
- MIC (Pseudomonas aeruginosa; P. aeruginosa 391KB62): > 32 µg/mL
- MIC (Pseudomonas aeruginosa; P. aeruginosa 391KB68): > 32 µg/mL
- MIC (Pseudomonas aeruginosa; P. aeruginosa 391KB90): > 32 µg/mL
- MIC (Pseudomonas aeruginosa; P. aeruginosa 391KB91): > 32 µg/mL
- MIC (Pseudomonas aeruginosa; P. aeruginosa 391KB99): > 32 µg/mL
- MIC (Pseudomonas aeruginosa; P. aeruginosa 391KB103): 32 µg/mL
- MIC (Pseudomonas aeruginosa; P. aeruginosa 391KB105): > 32 µg/mL
- MIC (Pseudomonas aeruginosa; P. aeruginosa 391KB106): 32 µg/mL
- MIC (Pseudomonas aeruginosa; P. aeruginosa 391KB107): > 32 µg/mL
- MIC (Pseudomonas aeruginosa; P. aeruginosa 391KB114): > 32 µg/mL
- MIC (Pseudomonas aeruginosa; P. aeruginosa 391KB127): > 32 µg/mL
- MIC (Pseudomonas aeruginosa; P. aeruginosa 391KB135): > 32 µg/mL
- MIC (Pseudomonas aeruginosa; P. aeruginosa 391KB136): > 32 µg/mL
- MIC (Pseudomonas aeruginosa; P. aeruginosa 391KB137): > 32 µg/mL
- MIC (Pseudomonas aeruginosa; P. aeruginosa 391KB138): > 32 µg/mL
- MIC (Pseudomonas aeruginosa; P. aeruginosa 391KB139): > 32 µg/mL
- MIC (Pseudomonas aeruginosa; P. aeruginosa 391KB140): 16 µg/mL
- MIC (Pseudomonas aeruginosa; P. aeruginosa 391KB141): > 32 µg/mL
- MIC (Pseudomonas aeruginosa; P. aeruginosa 391KB142): > 32 µg/mL
- MIC (Pseudomonas aeruginosa; P. aeruginosa 391KB143): > 32 µg/mL
- MIC (Pseudomonas aeruginosa; P. aeruginosa 391KB144): > 32 µg/mL
- MIC (Pseudomonas aeruginosa; P. aeruginosa 391QBR2): > 32 µg/mL
- MIC (Pseudomonas aeruginosa; P. aeruginosa 391QBR3): > 32 µg/mL
- MIC (Pseudomonas aeruginosa; P. aeruginosa 391QBR4): > 32 µg/mL
- MIC (Pseudomonas aeruginosa; P. aeruginosa 391QBR5): > 32 µg/mL
- MIC (Pseudomonas aeruginosa; P. aeruginosa 391QBR7): > 32 µg/mL
- MIC (Pseudomonas aeruginosa; P. aeruginosa 391QBR8): > 32 µg/mL
- MIC (Pseudomonas aeruginosa; P. aeruginosa 391QBR9): > 32 µg/mL
- MIC (Pseudomonas aeruginosa; P. aeruginosa 391QBR10): > 32 µg/mL
- MIC (Pseudomonas aeruginosa; P. aeruginosa C3719): > 32 µg/mL
- MIC (E. coli; 24 h, E. coli 2138, KPC-2 + TEM-1): > 32 µg/mL
- MIC (E. coli; 24 h, E. coli (no alias), CTX-M-15 + TEM-1 + OXA-1): > 32 µg/mL
- MIC (E. coli; 24 h, E. coli IND, VEB-1 + CMY-2): > 32 µg/mL
- MIC (E. coli; 24 h, E. coli TN06, CTX-M-2 + TEM-1): 16 µg/mL
- MIC (E. coli; 24 h, E. coli TN13, CTX-M-14 + CMY-2 + TEM-1): > 32 µg/mL
- MIC (E. coli; 24 h, E. coli Tunisie clone E4, CTX-M-16 + TEM-1): > 32 µg/mL
- MIC (E. coli; E. coli (no alias), Cephalosporinase, read-out: MIC): > 32 µg/mL
- MIC (E. coli; E. coli (no alias), SHV-4): > 32 µg/mL
- MIC (E. coli; E. coli (no alias), TEM-3): 32 µg/mL (≈ 58.5 µM)
- MIC (E. cloacae; 24 h, E. cloacae 7506, KPC-2 + TEM-1 + KLUC-2): > 32 µg/mL
- MIC (E. cloacae; E. cloacae (no alias), AmpC): > 32 µg/mL
- MIC (E. cloacae; E. cloacae, AmpC): 32 µg/mL
- MIC (K. pneumoniae; 24 h, K. pneumoniae 60, SHV-2 + TEM-2 + PER): > 32 µg/mL
- MIC (K. pneumoniae; 24 h, K. pneumoniae 157, SHV-5 + TEM-26): > 32 µg/mL
- MIC (K. pneumoniae; 24 h, K. pneumoniae 181, SHV-5 + TEM-10): > 32 µg/mL
- MIC (K. pneumoniae; 24 h, K. pneumoniae 236, SHV-5 + TEM-10): > 32 µg/mL
- MIC (K. pneumoniae; 24 h, K. pneumoniae 238, SHV-2 + TEM-12 + CTX-M-2): > 32 µg/mL
- MIC (K. pneumoniae; 24 h, K. pneumoniae 243, SHV-5 + TEM-63): > 32 µg/mL
- MIC (K. pneumoniae; 24 h, K. pneumoniae 253, SHV-2 + TEM-12 + CTX-M-2): > 32 µg/mL
- MIC (K. pneumoniae; 24 h, K. pneumoniae 427, SHV-1 + TEM-1B + CTX-M-3): > 32 µg/mL
- MIC (K. pneumoniae; 24 h, K. pneumoniae 441, SHV-1 + TEM-2 + PER): > 32 µg/mL
- MIC (K. pneumoniae; 24 h, K. pneumoniae 444, SHV-5 + TEM-2 + PER): > 32 µg/mL
- MIC (K. pneumoniae; 24 h, K. pneumoniae 449, SHV-1 + TEM-2 + PER): > 32 µg/mL
- MIC (K. pneumoniae; 24 h, K. pneumoniae 465, TEM-1B + CTX-M-2): > 32 µg/mL
- MIC (K. pneumoniae; 24 h, K. pneumoniae 1734, FOX-3 + TEM-1): > 32 µg/mL
- MIC (K. pneumoniae; 24 h, K. pneumoniae 9701, CMY-4 + TEM-1): > 32 µg/mL
- MIC (K. pneumoniae; 24 h, K. pneumoniae KOL, MOX-2 + SHV-5 + TEM-1): > 32 µg/mL
- MIC (K. pneumoniae; 24 h, K. pneumoniae Patient 1BHR, VIM-4 + CTX-M-15 = CMY-4 + TEM-1): > 32 µg/mL
- MIC (K. pneumoniae; 24 h, K. pneumoniae Patient F, VIM-1 + SHV-5): > 32 µg/mL
- MIC (K. pneumoniae; 24 h, K. pneumoniae SLK54, ACC-1 + TEM-1): > 32 µg/mL
- MIC (K. pneumoniae; 24 h, K. pneumoniae TN58467, DHA-1 + SHV-2a + TEM-1): > 32 µg/mL
- MIC (K. pneumoniae; 24 h, K. pneumoniae Tunisie clone K1, CTX-M-16 + OXA-1): > 32 µg/mL
- MIC (K. pneumoniae; 24 h, K. pneumoniae Tunisie clone K4, CTX-M-15 + TEM-1 + OXA-1): > 32 µg/mL
- MIC (K. pneumoniae; ATCC700603, K. pneumoniae ATCC 700603, SHV-18): > 32 µg/mL
- MIC (K. pneumoniae; K. pneumoniae 26, SHV-5): > 32 µg/mL
- MIC (K. pneumoniae; K. pneumoniae CL5761, KPC-3): > 32 µg/mL
- MIC (K. pneumoniae; K. pneumoniae CL5762, KPC-3): > 32 µg/mL
- MIC (K. pneumoniae; K. pneumoniae CL5763, KPC-3): > 32 µg/mL
- MIC (K. pneumoniae; K. pneumoniae KP04, CTX-M-14): 32 µg/mL
- MIC (K. pneumoniae; K. pneumoniae VA8, KPC-3): > 32 µg/mL
- MIC (K. pneumoniae; K. pneumoniae VAKP, KPC-2): > 32 µg/mL
- MIC (K. pneumoniae; K. pneumoniae YC, KPC-2): > 32 µg/mL
- MIC (K. oxytoca; K. oxytoca 1431, TEM-129): > 32 µg/mL
- MIC (K. oxytoca; K. oxytoca 16944, OXY-2, TEM-1): > 32 µg/mL
- MIC (C. freundii; 24 h, C. freundii (no alias), AmpC + TEM-1): > 32 µg/mL
- MIC (C. freundii; C. freundii (no alias, table row r121), AmpC): > 32 µg/mL
- MIC (C. freundii; C. freundii (no alias, table row r122), AmpC): > 32 µg/mL
- MIC (C. freundii; C. freundii (no alias, table row r123), AmpC): > 32 µg/mL
- MIC (C. freundii; C. freundii (no alias, table row r125), AmpC): 16 µg/mL
